Numbered stars: 1 amine (or outer) side, 2 acyl side, 3 side chain; on linkers, the order of the positions; unused ones are H or OH. Bridge positions count the residues as written; N and C are the ends. Square brackets hold non-standard residues; d marks the D form. Peptide text beside a SMILES is read from it. * marks the point of attachment. Orn(4R-OH,5R-OCH2CH2NMe3+) = C[N+](C)(C)CCO[C@@H](N[*:3])[C@H](O)C[C@H](N[*:1])C(=O)[*:2]; pTerphenylCO(4''-OnC5H11) = CCCCCOc1ccc(-c2ccc(-c3ccc(C(=O)*)cc3)cc2)cc1; hTyr(3S-OH,4S-OH) = N[C@H](C(=O)O)[C@H](O)[C@@H](O)c1ccc(O)cc1; X1 = CCCCCOc1cc(F)c(C#Cc2ccc3cc(C(=O)*)ccc3c2)cc1F; Pro(3S-OH,4S-Me) = C[C@H]1CN[C@H](C(=O)O)[C@H]1O; Hyp = O=C(O)[C@@H]1C[C@@H](O)CN1
What was measured:
[1] = tested on: Cryptococcus neoformans ATCC 208821; assay: MIC assay, yeast-type fungi (CLSI M27-A3); assay type: cell-based; conditions: ATCC208821, 24 h, 35° C.
[2] = Study on pharmacokinetic properties in rats after intravenous injection; conditions: SD, rat, in vivo, 5 mg/kg
C. glabrata ATCC 15126 = assay: MIC assay, Candida standard strain (CLSI M27-A3); assay type: cell-based; conditions: Nakaseomyces glabratus, ATCC15126, 24 h, 35° C.
Protocol: (§1) After gradient dilution of test compounds, an MIC assay was performed on a Candida standard strain, and an MEC assay was performed on an Aspergillus standard strain. […] A cryopreserved strain was passaged at least 2 times. A single colony was picked and resuspended in a physiological saline or sterile water tube, and the tube was subjected to vortex shaking. The Candida suspension was adjusted to 0.5 McF (1×10^6-5×10^6 CFU/mL) at a wavelength of 530 nm by using a spectrophotometer. After being diluted 50 times with physiological saline, the Candida suspension was diluted 20 times with 1×RPMI 1640 broth (1×10^3-5×10^3 CFU/mL). 10 μL of the diluted Candida suspension was coated on an SDA plate for colony counting, with a range of about 10-50 single colonies. After a prepared drug sensitive plate was completely dissolved at room temperature, the Candida suspension was added to the 96-well plate by using a multi-channel pipettor at 100 μL/well. At this time, the concentration of Candida in each well should be 0.5×10^3-2.5×10^3 CFU/mL. A yeast-type fungus assay plate was placed in an incubator, and incubated for 24 h at 35° C. and 85% humidity, and then the MIC values were read. For echinocandin-based drugs, Aspergillus was incubated for 21-26 h at 28° C., and then the MEC results were read. Yeast-type fungi: A 96-well plate was attached with a disposable parafilm, shaken for uniformly mixing, and observed with naked eyes by using a plate reader microscope. […] Pictures were taken and saved by using an automated plate reader.

C. tropicalis ATCC 750 = assay: MIC assay, Candida standard strain (CLSI M27-A3); assay type: cell-based; conditions: ATCC750, 24 h, 35° C.
Protocol: as §1

[3] = tested on: Candida albicans ATCC 90028; assay: MIC assay, Candida standard strain (CLSI M27-A3); assay type: cell-based; conditions: ATCC90028, 24 h, 35° C., >50% growth inhibition
Protocol: as §1

[4] = tested on: Candida albicans ATCC MYA-4788; assay: MIC assay, Candida standard strain (CLSI M27-A3); assay type: cell-based; conditions: 24 h, 35° C.
Protocol: as §1

[5] = tested on: Candida albicans ATCC 14053; assay: MIC assay, Candida standard strain (CLSI M27-A3); assay type: cell-based; conditions: ATCC14053, 24 h, 35° C.
Protocol: as §1

[6] = tested on: Candida albicans CICC 1943; assay: MIC assay, Candida standard strain (CLSI M27-A3); assay type: cell-based; conditions: CICC1943, 24 h, 35° C.
Protocol: as §1

[7] = tested on: Candida albicans ATCC 18804; assay: MIC assay, Candida standard strain (CLSI M27-A3); assay type: cell-based; conditions: ATCC18804, 24 h, 35° C.
Protocol: as §1

[8] = tested on: Candida albicans ATCC 10231; assay: MIC assay, Candida standard strain (CLSI M27-A3); assay type: cell-based; conditions: ATCC10231, 24 h, 35° C., >50% growth inhibition
Protocol: as §1

[9] = tested on: Candida albicans ATCC 76485; assay: MIC assay, Candida standard strain (CLSI M27-A3); assay type: cell-based; conditions: ATCC76485, 24 h, 35° C.
Protocol: as §1

[10] = tested on: Candida albicans ATCC MYA-1023; assay: MIC assay, Candida standard strain (CLSI M27-A3); assay type: cell-based; conditions: 24 h, 35° C.
Protocol: as §1

[11] = tested on: Candida albicans ATCC MYA-427; assay: MIC assay, Candida standard strain (CLSI M27-A3); assay type: cell-based; conditions: 24 h, 35° C.
Protocol: as §1

C. krusei ATCC 6258 = assay: MIC assay, Candida standard strain (CLSI M27-A3); assay type: cell-based; conditions: Pichia kudriavzevii, ATCC6258; C. krusei ATCC 6258 (quality-control strain); 24 h, 35° C.
Protocol: as §1

[12] = tested on: Candida albicans ATCC 64124; assay: MIC assay, Candida standard strain (CLSI M27-A3); assay type: cell-based; conditions: ATCC64124, 24 h, 35° C.
Protocol: as §1

[13] = tested on: Candida albicans ATCC MYA-2876; assay: MIC assay, Candida standard strain (CLSI M27-A3); assay type: cell-based; conditions: 24 h, 35° C.
Protocol: as §1

[14] = tested on: C. parapsilosis ATCC 22019; assay: MIC assay, Candida standard strain (CLSI M27-A3); assay type: cell-based; conditions: Lodderomyces parapsilosis, ATCC22019; C. parapsilosis ATCC 22019 (quality-control strain); 24 h, 35° C.
Protocol: as §1

[15] = tested on: Candida albicans CMCC 98001; assay: MIC assay, Candida standard strain (CLSI M27-A3); assay type: cell-based; conditions: CMCC98001, 24 h, 35° C.
Protocol: as §1

[16] = tested on: Candida albicans ATCC MYA-574; assay: MIC assay, Candida standard strain (CLSI M27-A3); assay type: cell-based; conditions: 24 h, 35° C.
Protocol: as §1

[17] = tested on: Candida albicans ATCC 90029; assay: MIC assay, Candida standard strain (CLSI M27-A3); assay type: cell-based; conditions: ATCC90029, 24 h, 35° C.
Protocol: as §1

[18] = tested on: Aspergillus fumigatus ATCC 204305; assay: MEC assay, Aspergillus standard strain (CLSI M38-A2); assay type: cell-based; conditions: 21-26 h, 28° C.
Protocol: After gradient dilution of test compounds, an MIC assay was performed on a Candida standard strain, and an MEC assay was performed on an Aspergillus standard strain.
The colonies on the plate were covered with 0.85% physiological saline (1 mL) or sterile water (polysorbate 20 was added to a final concentration of 0.1%-0.01%). […] The resuspension of spore hyphae was transferred to a sterile test tube, and left to stand for 3-5 min to precipitate heavier particles. The homogeneous suspension on the upper layer was transferred to a new sterile test tube, and the tube was capped closely, and subjected to vortex shaking for 15 s (note: the suspension can produce an aerosol when the cap is reopened). The concentration of the suspension was adjusted to an OD value of 0.09-0.13 at 530 nm by using a spectrophotometer. […] Within 2 h after dilution, 100 μL of the diluted suspension was added to each well in a 96-well plate (the concentration of spores in the final drug sensitive plate should be 0.4×10^4-5×10^4 CFU/mL).
In order to accurately determine MEC value, vortex oscillation should not be allowed before reading the plate.

[19] = tested on: Pichia guilliermondii ATCC 6260; assay: MIC assay, yeast-type fungi (CLSI M27-A3); assay type: cell-based; conditions: Meyerozyma guilliermondii, ATCC6260, 24 h, 35° C.
Protocol: as §1

[20] = rat, in vivo, iv
in vivo = conditions: SD, rat, iv

SMILES | MIC [1] [µg/mL] | MIC (C. glabrata ATCC 15126) [µg/mL] | MIC (C. tropicalis ATCC 750) [µg/mL] | MIC [3] [µg/mL] | MIC [4] [µg/mL] | MIC [5] [µg/mL] | MIC [6] [µg/mL] | MIC [7] [µg/mL] | MIC [8] [µg/mL] | MIC [9] [µg/mL] | MIC [10] [µg/mL] | MIC [11] [µg/mL] | MIC (C. krusei ATCC 6258) [µg/mL] | MIC [12] [µg/mL] | MIC [13] [µg/mL] | MIC [14] [µg/mL] | MIC [15] [µg/mL] | MIC [16] [µg/mL] | MIC [17] [µg/mL] | MEC [18] [µg/mL] | other results
CCCCCOc1ccc(-c2ccc(-c3ccc(C(=O)N[C@H]4C[C@@H](O)[C@@H](OCC[N+](C)(C)C)NC(=O)[C@@H]5[C@@H](O)[C@@H](C)CN5C(=O)[C@H]([C@@H](C)O)NC(=O)[C@H]([C@H](O)[C@@H](O)c5ccc(O)cc5)NC(=O)[C@@H]5C[C@@H](O)CN5C(=O)[C@H]([C@@H](C)O)NC4=O)cc3)cc2)cc1 [Rezafungin, rezafungin, reference compound] ({pTerphenylCO(4''-OnC5H11)}-[Orn(4R-OH,5R-OCH2CH2NMe3+)]T[Hyp][hTyr(3S-OH,4S-OH)]T[Pro(3S-OH,4S-Me)]; lactam 1-C) | 16 | 0.06 | ≤ 0.015 | ≤ 0.015 | ≤ 0.015 | ≤ 0.015 | ≤ 0.015 | ≤ 0.015 | ≤ 0.015 | ≤ 0.015 | ≤ 0.015 | ≤ 0.015 | 0.03 | ≤ 0.015 | ≤ 0.015 | 0.5 | ≤ 0.015 | ≤ 0.015 | ≤ 0.015 | ≤0.015 | AUC(0-inf) [2]: 104 µg·h/mL; AUC(0-t) [2]: 89 µg·h/mL; Cmax [2]: 4750 ng/mL; MRT last [2]: 20.2 h; Vd [2]: 1.9 L/kg; clearance [2]: 0.8 mL/min/kg; half-life [2]: 27.5 h; MIC [19]: 0.25 µg/mL
CCCCCOc1cc(F)c(C#Cc2ccc3cc(C(=O)N[C@H]4C[C@@H](O)[C@@H](OCC[N+](C)(C)C)NC(=O)[C@@H]5[C@@H](O)[C@@H](C)CN5C(=O)[C@H]([C@@H](C)O)NC(=O)[C@H]([C@H](O)[C@@H](O)c5ccc(O)cc5)NC(=O)[C@@H]5C[C@@H](O)CN5C(=O)[C@H]([C@@H](C)O)NC4=O)ccc3c2)cc1F [Example 16] (X1-[Orn(4R-OH,5R-OCH2CH2NMe3+)]T[Hyp][hTyr(3S-OH,4S-OH)]T[Pro(3S-OH,4S-Me)]; lactam 1-C) | 8 | 0.06 | ≤ 0.015 | 0.03 | ≤ 0.015 | ≤ 0.015 | 0.03 | ≤ 0.015 | 0.03 | ≤ 0.015 | ≤ 0.015 | 0.03 | 0.06 | ≤ 0.015 | ≤ 0.015 | 0.5 | ≤ 0.015 | ≤ 0.015 | ≤ 0.015 | ≤0.015 | drug exposure level (Cmax and AUC) and half-life (T1/2) in the blood plasma compared with rezafungin [20]: significantly higher; AUC(0-inf) (in vivo; 2.5 mg/kg): 275 µg·h/mL; AUC(0-t) (in vivo; 2.5 mg/kg): 206 µg·h/mL; Cmax (in vivo; 2.5 mg/kg): 6080 ng/mL; MRT last (in vivo; 2.5 mg/kg): 26.1 h; Vd (in vivo; 2.5 mg/kg): 0.49 L/kg; clearance (in vivo; 2.5 mg/kg): 0.15 mL/min/kg; half-life (in vivo; 2.5 mg/kg): 37.3 h; AUC(0-inf) (in vivo; 5 mg/kg): 424 µg·h/mL; AUC(0-t) (in vivo; 5 mg/kg): 326 µg·h/mL; Cmax (in vivo; 5 mg/kg): 12000 ng/mL; MRT last (in vivo; 5 mg/kg): 24.2 h; Vd (in vivo; 5 mg/kg): 0.591 L/kg; clearance (in vivo; 5 mg/kg): 0.2 mL/min/kg; half-life (in vivo; 5 mg/kg): 34.8 h; MIC [19]: 0.25 µg/mL

Source: patent US20250011365A1, “ECHINOCANDIN-BASED DRUG, AND PREPARATION METHOD THEREFOR AND USE THEREOF” (Shenzhen Sungening Biological Co., Ltd, priority 2023, published 2025)
